# Data from patent publication US20060046972A1, “Cytotoxic nucleoside analog compound 003 for treating cancer” (Parker Hughes Institute, priority 2004, published 2006).
# What was measured:
# BT20 breast cancer cells = assay: Confocal laser scanning microscopy of microtubules / mitotic spindle, BT20; format: cell-based, human
# Description: Immunofluorenscence was used to examine the spindle features of human cancer cell lines treated with Compound 003 or 0.5% DMSO. […] The coverslips were incubated with antibodies raised against α-tubulin, γ-tubulin (Sigma Chemical Co., St Louis, Mo.) (40 min 37° C.), washed in PBS-Tx-100, and incubated with an appropriate secondary antibody conjugated to FITC (Jackson ImmunoResearch, Westgrove, Pa.). Cellular DNA was labeled with 5 μM TOTO3 (Molecular Probes, Eugene, Oreg.) for 20 minutes. Coverslips were immediately inverted onto slides in Vectashield (Vector Labs, Burlingame, Calif.) to prevent photobleaching, sealed with nail varnish and stored at −20° C. The slides were examined using a Bio-Rad MRC-1024 Laser Scanning Confocal Microscope equipped with a Kr/Ar laser (BioRad, Hercules, Calif.) mounted on a Nikon Eclipse E800 upright microscope with high numerical aperture objectives (Nikon, Melville, N.Y.). Digital data were processed using Lasersharp (BioRad) and Adobe Photoshop software (Adobe Systems, Mountain View, Calif.). ( See, for example, Navara, et al., 2001, Anticancer Drugs. 12:369; Malaviya, et al., 2002, Leuk Lymphoma. 43, 1329; and Ghosh, 1998, Clin Cancer Res. 4, 2657).
# [1] = test system: MMTV/Neu transgenic mice (spontaneous breast cancer); assay: Murine model of Her2 positive breast cancer, virgin MMTV/Neu transgenic mice; format: in vivo
# Excerpt: Overexpression of the wild type Neu in the mammary glands of transgenic mice induces metastatic breast cancer. Accordingly, in the MMTV/Neu transgenic strain, the wild-type neu is overexpressed in the mammary gland under the control of the MMTV long terminal repeat. This animal model has been used to analyze the Her2/neu overexpression in breast epithelia, as well as the efficacy of new therapeutic approaches to prevent or treat Her2/neu overexpressing malignancies.
# MMTV/Neu transgenic mice were treated with Compound 003 that was added to the daily food of the mice at an average daily dose level of 50 mg/kg/day for the duration of the experiment. Mice were screened for the tumor formation every other day. Tumor-free survival was analyzed using life table statistics as previously reported. The protective anti-cancer activity of Compound 003 was evaluated according to the rise of the survival rate and prolongation of the tumor-free survival of the experimental animals as compared with the control animals. Statistical Significance was determined using the Kaplan Meier Log-Rank test.
# Neu transgenic mice were mated to FVB non-transgenic mice, and heterozygous neu transgenic offspring were identified by PCR analysis. A total of 62 female neu transgenic mice were identified from the offspring. These transgenic mice were used to examine the effects of a nontoxic dose level of Compound 003 (50 mg/kg/day) on spontaneous breast cancer development in two independent experiments.
# In the first experiment, 30 virgin transgenic mice were used. Treatments were initiated when female mice were 6 weeks of age. Fifteen of the 15 vehicle treated control transgenic mice developed breast cancer with a median cancer-free survival time of 224 days (Mean=253±23 days) (FIG. 7, FIG. 8A&B). At 340 days, only 20% of the mice were tumor-free and by 480 days all had developed breast cancer. The mammary gland tumors were excised, paraffin-embedded and sectioned for H+E staining. A representative tumor section from a neu transgenic mouse is shown in panel C of FIG. 8. […]
# NALM6 cells = assay: Gene profiling, Atlas Human cDNA Expression arrays; format: cell-based
# Description: Gene Profiling using the Atlas Human cDNA Expression arrays from Molecular Dynamics was preformed according to the manufacturer's specification, as described below.
# Total RNA was prepared from NALM6 cells treated with Compound 003 (5, 50TM, vehicle) using Tripure isolation reagent (Boehringer Mannheim); the reagent is a monophasic solution of phenol and guanidine thiocyanate, followed by Dnase treatment (RQ1 Rnase-Free Dnase, Promega). Total RNA was quantified using standard spectrophotometric methods.
# For probe preparation and hybridization, approximately 5 micrograms of total RNA was converted into radioactively labeled cDNA using […] (Amersham) by reverse transcriptase (Clontech). Chroma Spin columns (Clontech) were used to purify labeled cDNA. Atlas cDNA probe was denatured with 1M NaOH/10 mM EDTA and neutralized with 1M NaH2PO4 and C0t-1 DNA at 68° C. Prehybridization solution was discarded and arrays were hybridized overnight. Arrrays were washed 4 times by using 2×SSC/1% SDS and 2 times by using 0.1×SSC/0.5% SDS. Membranes were sealed and exposed to a phosphoscreen (Molecular Dynamics). The expression levels were quantified using 8 bit gray levels using image analysis software (Imagene 4.2, Biodiscovery; Inc).
# For the Atlas Human cDNA Expression array, 588 genes were subdivided into these six functional groups: (A) Oncogenes, Tumor suppressors Cell Cycle regulators, (B) Ion channels and transport, Modulators, stress response, (C) Apoptosis, DNA synthesis, repair and recombination, (D) Transcription factors, DNA binding proteins, (E) Receptors, Cell surface antigens, Cell adhesion & (F) Growth factors, cytokines, chemokines, Interleukins, Hormones. The letters correspond to individual quadrants on the array and may be noted as the first letter in each abbreviation in Table 4.
# Spots on the macro arrays (5, 50 Tm and control) were analyzed using the spot finder technique in the Imagene software. The integrity and fragmentation: due to saturated pixels, of the spots was assessed and appropriate background measurements were chosen to detect signals. […] All drug treated samples (5, 50TM) were compared to no drug controls using a linear regression method for log2 transformed density readings (Genesight 3.1, Biodiscovery). A piecewise linear regression method (3 bins, minimum of 20 elements per bin) was used normalize density readings across the three arrays to minimize the effect of low expression and saturated signals on the regression. All housekeeping genes were monitored for detection of false positive signals.
structure (smiles),measurement,setting,value
"COC(=O)C(C)NP(=O)(OCC1OC(n2cc(C)c(=O)[nH]c2=O)CC1N=[N+]=[N-])Oc1ccc(OC)cc1 (stereo not drawn) [Compound 003, 3′-azidothymidine 5′-[p-methoxyphenylmethoxyalaninyl phosphate]]",mitotic spindle formation,BT20 breast cancer cells; 100 μM,induced aberrant multipolar spindle formation
same,effect on microtubules,BT20 breast cancer cells; 185 μM for 24 hours (AZT: similar concentrations),no microtubules were observed
same,median cancer-free survival,"[1]; 50 mg/kg/day in food, vehicle 224 days, P=0.0007",455 days
same,proportion of mice cancer-free,"[1]; 50 mg/kg/day, at 340 days, vehicle 20±10%",93±7%
same,proportion of mice still cancer-free,"[1]; 50 mg/kg/day, at 480 days, when all vehicle mice had breast cancer",one third
same,decreased expression of GADD 153 gene,NALM6 cells,~3.5 fold
same,downregulation of c-jun proto-oncogene,NALM6 cells,~2 fold
same,increase in the gene for myeloid cell nuclear differentiation antigen (MNDA),NALM6 cells; 50 μM,~4 fold
same,increased expression of FAN gene,NALM6 cells; 50 μM,3 fold
